{"source": "ChEMBL document CHEMBL3885861", "about": "“Open TG-GATES”", "species_on_record": "Rattus norvegicus", "experiment": "Open TG-GATES - Regimen: Daily Repeat", "type": "toxicity, organism-based, Sprague-Dawley", "parameters": "regimen Daily Repeat, gender Male, age 6 weeks", "conditions": "in vivo, po, 2000 mg/kg, route gavage, dose level High; for APTT / Bas / Eos / Fbg / Hb / Ht / Lym / MCH / MCHC / MCV / Mono / Neu / PT / Plat / RBC / Ret / WBC: tissue Blood", "key": {"[1]": {"conditions": "72 h, tissue Kidney, time 3 day"}, "[2]": {"conditions": "72 h, tissue Plasma, time 3 day"}}, "data": [{"smiles": "COc1ccc(O)c(C(C)(C)C)c1.COc1ccc(O)cc1C(C)(C)C", "note": "[BUTYLATED HYDROXYANISOLE]", "values": [{"measurement": "TERMINAL_BW", "setting": "72 h, time 3 day", "value": 199.9, "unit": "g"}, {"measurement": "APTT", "setting": "72 h, time 3 day", "value": 18.9, "unit": "s"}, {"measurement": "Bas", "setting": "72 h, time 3 day", "value": 0.2, "unit": "%"}, {"measurement": "Eos", "setting": "72 h, time 3 day", "value": 0.7, "unit": "%"}, {"measurement": "Fbg", "setting": "72 h, time 3 day", "value": 288, "unit": "mg/dL"}, {"measurement": "Hb", "setting": "72 h, time 3 day", "value": 13.9, "unit": "g/dL"}, {"measurement": "Ht", "setting": "72 h, time 3 day", "value": 40.3, "unit": "%"}, {"measurement": "Lym", "setting": "72 h, time 3 day", "value": 78.1, "unit": "%"}, {"measurement": "MCH", "setting": "72 h, time 3 day", "value": 20.7, "unit": "pg"}, {"measurement": "MCHC", "setting": "72 h, time 3 day", "value": 34.6, "unit": "%"}, {"measurement": "MCV", "setting": "72 h, time 3 day", "value": 59.8, "unit": "fL"}, {"measurement": "Mono", "setting": "72 h, time 3 day", "value": 2.8, "unit": "%"}, {"measurement": "Neu", "setting": "72 h, time 3 day", "value": 17.5, "unit": "%"}, {"measurement": "PT", "setting": "72 h, time 3 day", "value": 11.8, "unit": "s"}, {"measurement": "Plat", "setting": "72 h, time 3 day", "value": 152.4, "unit": "x10_4/uL"}, {"measurement": "RBC", "setting": "72 h, time 3 day", "value": 673.2, "unit": "x10_4/ul"}, {"measurement": "Ret", "setting": "72 h, time 3 day", "value": 2.1, "unit": "%"}, {"measurement": "WBC", "setting": "72 h, time 3 day", "value": 93.2, "unit": "x10_2/uL"}, {"measurement": "KIDNEY_L", "setting": "[1]", "value": 0.9, "unit": "g"}, {"measurement": "KIDNEY_R", "setting": "[1]", "value": 0.9, "unit": "g"}, {"measurement": "KIDNEY_TOTAL", "setting": "[1]", "value": 1.8, "unit": "g"}, {"measurement": "LIVER", "setting": "72 h, tissue Liver, time 3 day", "value": 12.3, "unit": "g"}, {"measurement": "A/G", "setting": "[2]", "value": 0.8}, {"measurement": "ALP", "setting": "[2]", "value": 1414.4, "unit": "IU/L"}, {"measurement": "ALT", "setting": "[2]", "value": 69.4, "unit": "IU/L"}, {"measurement": "AST", "setting": "[2]", "value": 76.4, "unit": "IU/L"}, {"measurement": "BUN", "setting": "[2]", "value": 14.2, "unit": "mg/dL"}, {"measurement": "CRE", "setting": "[2]", "value": 0.2, "unit": "mg/dL"}, {"measurement": "Ca", "setting": "[2]", "value": 10.9, "unit": "mg/dL"}, {"measurement": "Cl", "setting": "[2]", "value": 108.2, "unit": "meq/L"}, {"measurement": "DBIL", "setting": "[2]", "value": 0.036, "unit": "mg/dL"}, {"measurement": "GLC", "setting": "[2]", "value": 152, "unit": "mg/dL"}, {"measurement": "IP", "setting": "[2]", "value": 5.5, "unit": "mg/dL"}, {"measurement": "K", "setting": "[2]", "value": 3.6, "unit": "meq/L"}, {"measurement": "LDH", "setting": "[2]", "value": 70.2, "unit": "IU/L"}, {"measurement": "Na", "setting": "[2]", "value": 143, "unit": "meq/L"}, {"measurement": "PL", "setting": "[2]", "value": 197, "unit": "mg/dL"}, {"measurement": "RALB", "setting": "[2]", "value": 2.5, "unit": "g/dL"}, {"measurement": "TBIL", "setting": "[2]", "value": 0.09, "unit": "mg/dL"}, {"measurement": "TC", "setting": "[2]", "value": 113, "unit": "mg/dL"}, {"measurement": "TG", "setting": "[2]", "value": 106.4, "unit": "mg/dL"}, {"measurement": "TP", "setting": "[2]", "value": 5.5, "unit": "g/dL"}, {"measurement": "gamma-GTP", "setting": "[2]", "value": 2.8, "unit": "IU/L"}, {"measurement": "TERMINAL_BW", "setting": "[…], time 7 day", "value": 225.2, "unit": "g"}, {"measurement": "TERMINAL_BW", "setting": "[…], time 14 day", "value": 262.1, "unit": "g"}, {"measurement": "TERMINAL_BW", "setting": "[…], time 28 day", "value": 342.7, "unit": "g"}, {"measurement": "APTT", "setting": "[…], time 7 day", "value": 15.8, "unit": "s"}, {"measurement": "Bas", "setting": "[…], time 7 day", "value": 0.3, "unit": "%"}, {"measurement": "Eos", "setting": "[…], time 7 day", "value": 0.5, "unit": "%"}, {"measurement": "Fbg", "setting": "[…], time 7 day", "value": 316.8, "unit": "mg/dL"}, {"measurement": "Hb", "setting": "[…], time 7 day", "value": 13.2, "unit": "g/dL"}, {"measurement": "Ht", "setting": "[…], time 7 day", "value": 38.2, "unit": "%"}, {"measurement": "Lym", "setting": "[…], time 7 day", "value": 76.9, "unit": "%"}, {"measurement": "MCH", "setting": "[…], time 7 day", "value": 20.2, "unit": "pg"}, {"measurement": "MCHC", "setting": "[…], time 7 day", "value": 34.6, "unit": "%"}, {"measurement": "MCV", "setting": "[…], time 7 day", "value": 58.3, "unit": "fL"}, {"measurement": "Mono", "setting": "[…], time 7 day", "value": 3.4, "unit": "%"}, {"measurement": "Neu", "setting": "[…], time 7 day", "value": 18.2, "unit": "%"}, {"measurement": "PT", "setting": "[…], time 7 day", "value": 11.6, "unit": "s"}, {"measurement": "Plat", "setting": "[…], time 7 day", "value": 176.3, "unit": "x10_4/uL"}, {"measurement": "RBC", "setting": "[…], time 7 day", "value": 655.8, "unit": "x10_4/ul"}, {"measurement": "Ret", "setting": "[…], time 7 day", "value": 4.1, "unit": "%"}, {"measurement": "WBC", "setting": "[…], time 7 day", "value": 146.4, "unit": "x10_2/uL"}, {"measurement": "APTT", "setting": "[…], time 14 day", "value": 18.4, "unit": "s"}, {"measurement": "Bas", "setting": "[…], time 14 day", "value": 0.2, "unit": "%"}, {"measurement": "Eos", "setting": "[…], time 14 day", "value": 0.6, "unit": "%"}, {"measurement": "Fbg", "setting": "[…], time 14 day", "value": 295.6, "unit": "mg/dL"}, {"measurement": "Hb", "setting": "[…], time 14 day", "value": 13.6, "unit": "g/dL"}, {"measurement": "Ht", "setting": "[…], time 14 day", "value": 39.4, "unit": "%"}, {"measurement": "Lym", "setting": "[…], time 14 day", "value": 71.9, "unit": "%"}, {"measurement": "MCH", "setting": "[…], time 14 day", "value": 19.7, "unit": "pg"}, {"measurement": "MCHC", "setting": "[…], time 14 day", "value": 34.6, "unit": "%"}, {"measurement": "MCV", "setting": "[…], time 14 day", "value": 56.9, "unit": "fL"}, {"measurement": "Mono", "setting": "[…], time 14 day", "value": 2.6, "unit": "%"}, {"measurement": "Neu", "setting": "[…], time 14 day", "value": 23.8, "unit": "%"}, {"measurement": "PT", "setting": "[…], time 14 day", "value": 12.1, "unit": "s"}, {"measurement": "Plat", "setting": "[…], time 14 day", "value": 130.9, "unit": "x10_4/uL"}, {"measurement": "RBC", "setting": "[…], time 14 day", "value": 693.8, "unit": "x10_4/ul"}, {"measurement": "Ret", "setting": "[…], time 14 day", "value": 3.8, "unit": "%"}, {"measurement": "WBC", "setting": "[…], time 14 day", "value": 103.7, "unit": "x10_2/uL"}, {"measurement": "APTT", "setting": "[…], time 28 day", "value": 22.8, "unit": "s"}, {"measurement": "Bas", "setting": "[…], time 28 day", "value": 0.4, "unit": "%"}, {"measurement": "Eos", "setting": "[…], time 28 day", "value": 0.7, "unit": "%"}, {"measurement": "Fbg", "setting": "[…], time 28 day", "value": 317.2, "unit": "mg/dL"}, {"measurement": "Hb", "setting": "[…], time 28 day", "value": 14.7, "unit": "g/dL"}, {"measurement": "Ht", "setting": "[…], time 28 day", "value": 41.8, "unit": "%"}]}]}
